pIC50: −log10 of the molar value.
Columns and labels:
AGS = test: Antiproliferative activity against human AGS cells after 72 hrs by MTT assay
CDK8/Cyclin C = CDK8/Cyclin C (Homo sapiens, UniProt P49336); test: Inhibition of recombinant full length His-tagged human CDK8/Cyclin C expressed in baculovirus expression system using Ulight-GS peptide as substrate after 30 mins in presence of ATP by TR-FRET assay
[1] = target: Platelet-derived growth factor receptor alpha (Homo sapiens) (UniProt P16234); test: Inhibition of PDGFRalpha (unknown origin) at 1 uM relative to control
[2] = target: Vascular endothelial growth factor receptor 2 (Homo sapiens) (UniProt P35968); test: Inhibition of KDR (unknown origin) at 1 uM relative to control
[3] = target: Fibroblast growth factor receptor 1 (Homo sapiens) (UniProt P11362); test: Inhibition of FGFR1 (unknown origin) at 1 uM relative to control
[4] = target: Tyrosine-protein kinase JAK2 (Homo sapiens) (UniProt O60674); test: Inhibition of JAK2 (unknown origin) at 1 uM relative to control
Homo sapiens = organism: Homo sapiens; test: Inhibition of P70S6K (unknown origin) at 1 uM relative to control
[5] = target: Calcium/calmodulin-dependent protein kinase type IV (Homo sapiens) (UniProt Q16566); test: Inhibition of CAMK4 (unknown origin) at 1 uM relative to control
[6] = target: Angiopoietin-1 receptor (Homo sapiens) (UniProt Q02763); test: Inhibition of TIE2 (unknown origin) at 1 uM relative to control
[7] = target: Mast/stem cell growth factor receptor Kit (Homo sapiens) (UniProt P10721); test: Inhibition of cKIT (unknown origin) at 1 uM relative to control
[8] = target: Mitogen-activated protein kinase 14 (Homo sapiens) (UniProt Q16539); test: Inhibition of p38alpha (unknown origin) at 1 uM relative to control
[9] = target: Serine/threonine-protein kinase PAK 4 (Homo sapiens) (UniProt O96013); test: Inhibition of PAK4 (unknown origin) at 1 uM relative to control
[10] = target: Serine/threonine-protein kinase Sgk1 (Homo sapiens) (UniProt O00141); test: Inhibition of SGK (unknown origin) at 1 uM relative to control
[11] = target: Tyrosine-protein kinase ABL1 (Homo sapiens) (UniProt P00519); test: Inhibition of ABL (unknown origin) at 1 uM relative to control
[12] = target: Inhibitor of nuclear factor kappa-B kinase subunit beta (Homo sapiens) (UniProt O14920); test: Inhibition of IKKbeta (unknown origin) at 1 uM relative to control
[13] = target: Proto-oncogene tyrosine-protein kinase Src (Homo sapiens) (UniProt P12931); test: Inhibition of SRC (unknown origin) at 1 uM relative to control
[14] = target: Tyrosine-protein kinase Lck (Homo sapiens) (UniProt P06239); test: Inhibition of LCK (unknown origin) at 1 uM relative to control
[15] = target: Ephrin type-A receptor 1 (Homo sapiens) (UniProt P21709); test: Inhibition of EPHA1 (unknown origin) at 1 uM relative to control
[16] = target: ALK tyrosine kinase receptor (Homo sapiens) (UniProt Q9UM73); test: Inhibition of ALK (unknown origin) at 1 uM relative to control
[17] = target: Epidermal growth factor receptor (Homo sapiens) (UniProt P00533); test: Inhibition of EGFR (unknown origin) at 1 uM relative to control
[18] = target: RAC-alpha serine/threonine-protein kinase (Homo sapiens) (UniProt P31749); test: Inhibition of AKT1 (unknown origin) at 1 uM relative to control
[19] = target: Insulin-like growth factor 1 receptor (Homo sapiens) (UniProt P08069); test: Inhibition of IGF1R (unknown origin) at 1 uM relative to control
[20] = target: Ribosomal protein S6 kinase alpha-1 (Homo sapiens) (UniProt Q15418); test: Inhibition of RSK1 (unknown origin) at 1 uM relative to control
[21] = target: Ribosomal protein S6 kinase alpha-2 (Homo sapiens) (UniProt Q15349); test: Inhibition of RSK2 (unknown origin) at 1 uM relative to control
[22] = target: Ribosomal protein S6 kinase alpha-5 (Homo sapiens) (UniProt O75582); test: Inhibition of MSK1 (unknown origin) at 1 uM relative to control
[23] = target: Ribosomal protein S6 kinase alpha-4 (Homo sapiens) (UniProt O75676); test: Inhibition of MSK2 (unknown origin) at 1 uM relative to control
[24] = target: Serine/threonine-protein kinase pim-1 (Homo sapiens) (UniProt P11309); test: Inhibition of PIM1 (unknown origin) at 1 uM relative to control
[25] = target: Protein kinase C alpha type (Homo sapiens) (UniProt P17252); test: Inhibition of PKCalpha (unknown origin) at 1 uM relative to control
[26] = target: Rho-associated protein kinase 1 (Homo sapiens) (UniProt Q13464); test: Inhibition of ROCK1 (unknown origin) at 1 uM relative to control
[27] = target: Glycogen synthase kinase-3 beta (Homo sapiens) (UniProt P49841); test: Inhibition of Gsk3beta (unknown origin) at 1 uM relative to control
[28] = target: Mitogen-activated protein kinase 9 (Homo sapiens) (UniProt P45984); test: Inhibition of JNK2 (unknown origin) at 1 uM relative to control
[29] = target: Serine/threonine-protein kinase MARK1 (Homo sapiens) (UniProt Q9P0L2); test: Inhibition of MARK1 (unknown origin) at 1 uM relative to control
[30] = target: Serine/threonine-protein kinase 4 (Homo sapiens) (UniProt Q13043); test: Inhibition of MST1 (unknown origin) at 1 uM relative to control
[31] = target: Casein kinase I isoform delta (Homo sapiens) (UniProt P48730); test: Inhibition of CK1delta (unknown origin) at 1 uM relative to control
[32] = target: Aurora kinase B (Homo sapiens) (UniProt Q96GD4); test: Inhibition of AurB (unknown origin) at 1 uM relative to control
[33] = target: Aurora kinase A (Homo sapiens) (UniProt O14965); test: Inhibition of AurA (unknown origin) at 1 uM relative to control
[34] = target: 5'-AMP-activated protein kinase catalytic subunit alpha-1 (Homo sapiens) (UniProt Q13131); test: Inhibition of AMPKa1 (unknown origin) at 1 uM relative to control
[35] = target: Receptor-type tyrosine-protein kinase FLT3 (Homo sapiens) (UniProt P36888); test: Inhibition of FLT3 (unknown origin) at 1 uM relative to control
[36] = target: Hepatocyte growth factor receptor (Homo sapiens) (UniProt P08581); test: Inhibition of cMET (unknown origin) at 1 uM relative to control
[37] = target: Interleukin-1 receptor-associated kinase 1 (Homo sapiens) (UniProt P51617); test: Inhibition of IRAK1 (unknown origin) at 1 uM relative to control
[38] = target: Mitogen-activated protein kinase 3 (Homo sapiens) (UniProt P27361); test: Inhibition of ERK1 (unknown origin) at 1 uM relative to control
[39] = target: Receptor tyrosine-protein kinase erbB-2 (Homo sapiens) (UniProt P04626); test: Inhibition of HER2 (unknown origin) at 1 uM relative to control
[40] = target: Cyclin-dependent kinase 2 (Homo sapiens) (UniProt P24941); test: Inhibition of CDK2 (unknown origin) at 1 uM relative to control
[41] = target: Cyclin-dependent kinase 6 (Homo sapiens) (UniProt Q00534); test: Inhibition of CDK6 (unknown origin) at 1 uM relative to control
[42] = target: 3-phosphoinositide-dependent protein kinase 1 (Homo sapiens) (UniProt O15530); test: Inhibition of PDK1 (unknown origin) at 1 uM relative to control
[43] = Clearance in mouse at 5 mg/kg, iv; assay type: ADME, organism-based; conditions: in vivo
[44] = Cmax in mouse at 5 mg/kg, iv; assay type: ADME, organism-based; parameters: dose 5 mg/kg, route intravenous; conditions: in vivo
[45] = Cmax in mouse at 25 mg/kg, po; assay type: ADME, organism-based; parameters: dose 25 mg/kg, route oral; conditions: in vivo
[46] = Tmax in mouse at 25 mg/kg, po; assay type: ADME, organism-based; conditions: in vivo
[47] = Half life in mouse at 5 mg/kg, iv; assay type: ADME, organism-based; conditions: in vivo
[48] = Half life in mouse at 25 mg/kg, po; assay type: ADME, organism-based; conditions: in vivo
[49] = Volume of distribution at steady state in mouse at 5 mg/kg, iv; assay type: ADME, organism-based; conditions: in vivo, read-out: Vdss
[50] = Oral bioavailability in mouse at 25 mg/kg; assay type: ADME, organism-based; conditions: in vivo

Chain of CDK8/Cyclin C (P49336 whole entry): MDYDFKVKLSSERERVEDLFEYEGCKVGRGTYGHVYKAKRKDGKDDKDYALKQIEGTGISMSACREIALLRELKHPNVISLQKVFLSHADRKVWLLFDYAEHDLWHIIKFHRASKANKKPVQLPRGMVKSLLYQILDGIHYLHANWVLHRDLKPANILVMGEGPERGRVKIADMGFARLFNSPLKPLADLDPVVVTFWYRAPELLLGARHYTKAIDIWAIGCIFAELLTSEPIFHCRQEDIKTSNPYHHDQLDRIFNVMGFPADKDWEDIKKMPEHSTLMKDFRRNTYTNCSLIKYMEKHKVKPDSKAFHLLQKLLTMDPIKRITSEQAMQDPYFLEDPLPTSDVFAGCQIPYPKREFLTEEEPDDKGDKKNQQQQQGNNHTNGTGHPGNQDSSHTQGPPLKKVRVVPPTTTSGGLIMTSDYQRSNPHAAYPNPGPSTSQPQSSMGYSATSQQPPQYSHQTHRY
Chain of CDK8/Cyclin C (P24863 whole entry, further chain): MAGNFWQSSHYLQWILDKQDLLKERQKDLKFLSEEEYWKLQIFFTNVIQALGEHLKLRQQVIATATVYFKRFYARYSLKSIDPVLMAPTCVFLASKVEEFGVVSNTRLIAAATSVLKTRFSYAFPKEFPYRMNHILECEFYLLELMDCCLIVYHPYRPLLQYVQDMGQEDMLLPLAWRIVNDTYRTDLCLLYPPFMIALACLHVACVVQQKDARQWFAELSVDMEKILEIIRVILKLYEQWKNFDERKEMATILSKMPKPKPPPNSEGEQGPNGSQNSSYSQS
Chain of Aurora kinase B (Homo sapiens) (Q96GD4 whole entry): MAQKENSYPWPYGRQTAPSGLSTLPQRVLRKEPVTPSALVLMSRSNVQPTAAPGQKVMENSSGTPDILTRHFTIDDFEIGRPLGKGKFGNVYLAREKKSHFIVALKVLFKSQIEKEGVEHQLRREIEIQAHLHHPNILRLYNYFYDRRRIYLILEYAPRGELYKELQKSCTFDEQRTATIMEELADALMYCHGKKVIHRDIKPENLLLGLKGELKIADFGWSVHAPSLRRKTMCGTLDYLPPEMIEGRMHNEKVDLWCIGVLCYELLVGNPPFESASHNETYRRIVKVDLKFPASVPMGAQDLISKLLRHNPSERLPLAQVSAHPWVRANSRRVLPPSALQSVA
Chain of Hepatocyte growth factor receptor (Homo sapiens) (P08581 whole entry): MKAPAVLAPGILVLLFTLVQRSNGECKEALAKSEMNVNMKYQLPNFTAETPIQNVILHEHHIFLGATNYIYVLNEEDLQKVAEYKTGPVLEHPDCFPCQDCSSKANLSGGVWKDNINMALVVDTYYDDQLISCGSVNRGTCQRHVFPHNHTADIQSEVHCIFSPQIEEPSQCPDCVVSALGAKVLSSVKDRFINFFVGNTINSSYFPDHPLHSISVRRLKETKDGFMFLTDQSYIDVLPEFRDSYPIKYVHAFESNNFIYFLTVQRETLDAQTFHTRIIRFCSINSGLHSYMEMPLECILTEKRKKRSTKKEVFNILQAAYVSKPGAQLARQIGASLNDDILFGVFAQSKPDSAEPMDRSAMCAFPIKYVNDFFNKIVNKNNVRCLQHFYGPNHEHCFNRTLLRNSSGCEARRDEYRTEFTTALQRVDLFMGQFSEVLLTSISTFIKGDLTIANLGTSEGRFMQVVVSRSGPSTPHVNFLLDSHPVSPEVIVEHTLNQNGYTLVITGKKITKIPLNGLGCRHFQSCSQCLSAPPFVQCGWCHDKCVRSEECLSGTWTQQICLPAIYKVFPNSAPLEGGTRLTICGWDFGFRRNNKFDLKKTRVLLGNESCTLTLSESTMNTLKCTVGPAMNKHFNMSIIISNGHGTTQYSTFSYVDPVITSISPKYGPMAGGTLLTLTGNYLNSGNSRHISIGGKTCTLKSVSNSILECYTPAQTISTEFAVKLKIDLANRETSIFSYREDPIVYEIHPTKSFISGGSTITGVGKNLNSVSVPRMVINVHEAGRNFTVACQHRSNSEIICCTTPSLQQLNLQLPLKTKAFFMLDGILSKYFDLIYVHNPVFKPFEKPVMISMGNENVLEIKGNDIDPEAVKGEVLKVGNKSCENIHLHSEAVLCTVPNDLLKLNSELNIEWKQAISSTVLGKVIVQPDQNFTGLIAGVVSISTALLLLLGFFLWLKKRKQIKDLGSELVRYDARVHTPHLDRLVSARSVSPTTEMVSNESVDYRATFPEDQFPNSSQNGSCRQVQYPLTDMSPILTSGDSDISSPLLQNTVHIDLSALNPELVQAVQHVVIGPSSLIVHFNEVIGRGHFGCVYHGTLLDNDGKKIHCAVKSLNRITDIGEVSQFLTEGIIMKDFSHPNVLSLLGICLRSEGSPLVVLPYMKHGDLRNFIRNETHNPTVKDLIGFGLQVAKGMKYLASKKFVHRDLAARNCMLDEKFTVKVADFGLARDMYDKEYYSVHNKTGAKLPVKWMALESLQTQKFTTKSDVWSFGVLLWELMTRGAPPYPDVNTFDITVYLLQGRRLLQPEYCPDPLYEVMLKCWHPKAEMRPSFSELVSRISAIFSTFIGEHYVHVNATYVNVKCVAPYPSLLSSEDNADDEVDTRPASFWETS
Chain of 3-phosphoinositide-dependent protein kinase 1 (Homo sapiens) (O15530 whole entry, looked up): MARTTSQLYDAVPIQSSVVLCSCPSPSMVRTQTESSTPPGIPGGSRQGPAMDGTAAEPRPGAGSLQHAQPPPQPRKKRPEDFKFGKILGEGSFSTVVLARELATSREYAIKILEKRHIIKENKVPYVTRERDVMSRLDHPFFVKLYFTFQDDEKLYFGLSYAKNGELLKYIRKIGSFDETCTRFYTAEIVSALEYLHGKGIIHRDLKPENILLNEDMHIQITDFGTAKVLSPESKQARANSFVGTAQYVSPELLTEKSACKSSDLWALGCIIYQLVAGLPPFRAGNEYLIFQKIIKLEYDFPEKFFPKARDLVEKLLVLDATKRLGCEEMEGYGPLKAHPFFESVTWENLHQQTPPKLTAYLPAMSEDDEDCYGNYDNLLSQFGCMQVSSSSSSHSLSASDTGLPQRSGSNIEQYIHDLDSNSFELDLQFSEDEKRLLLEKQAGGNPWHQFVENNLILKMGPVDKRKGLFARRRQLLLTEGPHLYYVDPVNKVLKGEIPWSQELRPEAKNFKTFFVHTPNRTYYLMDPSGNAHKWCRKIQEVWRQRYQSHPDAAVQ
Chain of Ribosomal protein S6 kinase alpha-2 (Homo sapiens) (Q15349 whole entry): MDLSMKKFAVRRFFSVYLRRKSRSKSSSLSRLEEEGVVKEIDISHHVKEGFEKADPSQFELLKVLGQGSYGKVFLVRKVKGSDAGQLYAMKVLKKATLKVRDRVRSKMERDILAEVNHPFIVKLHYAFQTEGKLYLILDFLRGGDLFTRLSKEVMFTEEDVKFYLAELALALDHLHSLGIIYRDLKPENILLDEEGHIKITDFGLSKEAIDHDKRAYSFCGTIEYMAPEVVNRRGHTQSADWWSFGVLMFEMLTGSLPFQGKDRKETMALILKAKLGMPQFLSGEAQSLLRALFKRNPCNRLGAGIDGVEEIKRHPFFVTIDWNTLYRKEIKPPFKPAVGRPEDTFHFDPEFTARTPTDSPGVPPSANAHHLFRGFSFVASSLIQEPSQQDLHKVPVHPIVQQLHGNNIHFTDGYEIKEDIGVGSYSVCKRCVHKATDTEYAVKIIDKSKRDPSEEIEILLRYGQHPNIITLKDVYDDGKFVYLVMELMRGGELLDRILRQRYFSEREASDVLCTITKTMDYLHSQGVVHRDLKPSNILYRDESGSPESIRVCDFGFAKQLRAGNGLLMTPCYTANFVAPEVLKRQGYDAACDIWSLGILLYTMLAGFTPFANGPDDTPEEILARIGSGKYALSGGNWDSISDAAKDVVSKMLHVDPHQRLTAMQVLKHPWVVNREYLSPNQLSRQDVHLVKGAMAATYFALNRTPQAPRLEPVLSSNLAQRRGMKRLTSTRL
Chain of Serine/threonine-protein kinase PAK 4 (Homo sapiens) (O96013 whole entry, looked up): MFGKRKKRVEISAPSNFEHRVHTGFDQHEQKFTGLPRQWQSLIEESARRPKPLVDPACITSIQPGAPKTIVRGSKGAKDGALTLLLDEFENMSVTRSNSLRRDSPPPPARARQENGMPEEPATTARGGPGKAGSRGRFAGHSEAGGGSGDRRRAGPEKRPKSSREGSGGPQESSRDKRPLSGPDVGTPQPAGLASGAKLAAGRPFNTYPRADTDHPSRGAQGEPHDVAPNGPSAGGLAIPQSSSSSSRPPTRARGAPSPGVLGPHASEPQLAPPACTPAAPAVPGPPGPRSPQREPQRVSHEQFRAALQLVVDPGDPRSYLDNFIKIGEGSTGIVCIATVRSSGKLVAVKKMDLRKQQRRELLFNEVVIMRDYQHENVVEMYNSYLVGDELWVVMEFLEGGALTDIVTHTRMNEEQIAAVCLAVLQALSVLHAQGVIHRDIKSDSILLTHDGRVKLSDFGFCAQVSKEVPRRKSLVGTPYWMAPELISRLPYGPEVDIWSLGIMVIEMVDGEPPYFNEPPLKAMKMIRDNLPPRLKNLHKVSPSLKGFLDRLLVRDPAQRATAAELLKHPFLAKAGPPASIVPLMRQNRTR
Chain of Glycogen synthase kinase-3 beta (Homo sapiens) (P49841 whole entry, looked up): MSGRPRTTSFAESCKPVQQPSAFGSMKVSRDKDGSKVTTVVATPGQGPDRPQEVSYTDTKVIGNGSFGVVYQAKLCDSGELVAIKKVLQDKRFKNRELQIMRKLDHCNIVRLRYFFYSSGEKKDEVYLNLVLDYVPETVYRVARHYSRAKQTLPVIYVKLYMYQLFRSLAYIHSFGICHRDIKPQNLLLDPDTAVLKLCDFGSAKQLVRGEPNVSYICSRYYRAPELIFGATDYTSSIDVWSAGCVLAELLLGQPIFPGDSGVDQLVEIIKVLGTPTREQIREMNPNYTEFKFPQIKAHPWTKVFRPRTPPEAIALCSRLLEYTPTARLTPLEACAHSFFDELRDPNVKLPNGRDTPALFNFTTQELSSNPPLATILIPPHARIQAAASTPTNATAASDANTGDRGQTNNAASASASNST

Cc1cnccc1-c1c[nH]c(C(N)=O)c1C
pIC50 (AGS): 5.93
pIC50 (CDK8/Cyclin C): 8.00

CCc1cnccc1-c1c[nH]c(C#N)c1
pIC50 (CDK8/Cyclin C): 5.33

Cc1[nH]c(C(N)=O)cc1-c1ccncc1
pIC50 (CDK8/Cyclin C): 6.62

Cc1c(-c2ccncc2)c[nH]c1C(N)=O
pIC50 (AGS): 6.10
pIC50 (CDK8/Cyclin C): 8.10
inhibition [1]: < 20%
inhibition [2]: < 20%
inhibition [3]: < 20%
inhibition [4]: < 20%
inhibition (Homo sapiens): < 20%
inhibition [5]: < 20%
inhibition [6]: < 20%
inhibition [7]: < 20%
inhibition [8]: < 20%
inhibition [9]: < 20%
inhibition [10]: < 20%
inhibition [11]: < 20%
inhibition [12]: < 20%
inhibition [13]: < 20%
inhibition [14]: < 20%
inhibition [15]: < 20%
inhibition [16]: < 20%
inhibition [17]: < 20%
inhibition [18]: < 20%
inhibition [19]: < 20%
inhibition [20]: < 20%
inhibition [21]: < 20%
inhibition [22]: < 20%
inhibition [23]: < 20%
inhibition [24]: < 20%
inhibition [25]: < 20%
inhibition [26]: < 20%
inhibition [27]: < 20%
inhibition [28]: < 20%
inhibition [29]: < 20%
inhibition [30]: < 20%
inhibition [31]: < 20%
inhibition [32]: < 20%
inhibition [33]: < 20%
inhibition [34]: < 20%
inhibition [35]: < 20%
inhibition [36]: < 20%
inhibition [37]: < 20%
inhibition [38]: < 20%
inhibition [39]: < 20%
inhibition [40]: < 20%
inhibition [41]: < 20%
inhibition [42]: < 20%

N#Cc1cc(-c2ccncc2)c[nH]1
pIC50 (CDK8/Cyclin C): 6.55

NC(=O)c1[nH]cc(-c2ccncc2)c1C(F)(F)F
pIC50 (AGS): 6.57
pIC50 (CDK8/Cyclin C): 8.52
clearance [43]: 8.87 mL/min/kg
Cmax [44]: 9940 ng/mL
Cmax [45]: 12700 ng/mL
Tmax [46]: 15 min
half-life [47]: 50.4 min
half-life [48]: 475 min
Vd [49]: 0.49 L/kg
bioavailability [50]: 57.5%

NC(=O)c1[nH]cc(-c2ccncc2)c1Cl
pIC50 (AGS): 6.43
pIC50 (CDK8/Cyclin C): 8.30

NC(=O)c1cc(-c2ccncc2)c[nH]1
pIC50 (CDK8/Cyclin C): 6.77

NC(=O)c1cc(-c2ccnc(Cl)c2)c[nH]1
pIC50 (CDK8/Cyclin C): 6.46

Cn1cc(-c2ccncc2)cc1C(N)=O
pIC50 (CDK8/Cyclin C): 5.31

Cc1cnccc1-c1c[nH]c(C(N)=O)c1
pIC50 (CDK8/Cyclin C): 7.06

CCc1c(-c2ccncc2)c[nH]c1C(N)=O
pIC50 (AGS): 5.95
pIC50 (CDK8/Cyclin C): 7.89

CNC(=O)c1cc(-c2ccncc2)c[nH]1
pIC50 (CDK8/Cyclin C): 6.39

NC(=O)c1cc(-c2ccncc2)cn1Cc1ccccc1
pIC50 (CDK8/Cyclin C): 6.77

NC(=O)c1cc(-c2ccncc2Br)c[nH]1
pIC50 (CDK8/Cyclin C): 7.43

Cc1cc(-c2c[nH]c(C(N)=O)c2C)ccn1
pIC50 (CDK8/Cyclin C): 7.72

NC(=O)c1cc(-c2ccncc2Cl)c[nH]1
pIC50 (CDK8/Cyclin C): 7.72

NC(=O)c1cc(-c2ccncc2)c(Cl)[nH]1
pIC50 (CDK8/Cyclin C): 6.80

Cc1cc(-c2c[nH]c(C(N)=O)c2)ccn1
pIC50 (CDK8/Cyclin C): 6.32

From ChEMBL document CHEMBL4043169, “Discovery of potent and selective CDK8 inhibitors through FBDD approach” (Bioorg Med Chem Lett, 2017)
